≈ marks a conversion by molar mass, not a printed value.
Experiments:
[1] = biological target: T1, MRP2 (Homo sapiens, UniProt Q92887); test: [14C] erythromycin uptake in MDCK-MRP2 cells; assay type: cell-based
[2] = biological target: T2, P-gp (human MDR1) (Homo sapiens, UniProt P08183); conditions: MDCKII-MDR1 monolayers
[3] = biological target: T3, BCRP (Homo sapiens, UniProt Q9UNQ0); test: Accumulation of Hoechst 33342 in MDCK-BCRP cells; assay type: cell-based; conditions: gatifloxacin 0.5, 1, 2.5, 5 and 10 mM, Hoechst 33342 5μM
T3 sequence (Q9UNQ0 1-655): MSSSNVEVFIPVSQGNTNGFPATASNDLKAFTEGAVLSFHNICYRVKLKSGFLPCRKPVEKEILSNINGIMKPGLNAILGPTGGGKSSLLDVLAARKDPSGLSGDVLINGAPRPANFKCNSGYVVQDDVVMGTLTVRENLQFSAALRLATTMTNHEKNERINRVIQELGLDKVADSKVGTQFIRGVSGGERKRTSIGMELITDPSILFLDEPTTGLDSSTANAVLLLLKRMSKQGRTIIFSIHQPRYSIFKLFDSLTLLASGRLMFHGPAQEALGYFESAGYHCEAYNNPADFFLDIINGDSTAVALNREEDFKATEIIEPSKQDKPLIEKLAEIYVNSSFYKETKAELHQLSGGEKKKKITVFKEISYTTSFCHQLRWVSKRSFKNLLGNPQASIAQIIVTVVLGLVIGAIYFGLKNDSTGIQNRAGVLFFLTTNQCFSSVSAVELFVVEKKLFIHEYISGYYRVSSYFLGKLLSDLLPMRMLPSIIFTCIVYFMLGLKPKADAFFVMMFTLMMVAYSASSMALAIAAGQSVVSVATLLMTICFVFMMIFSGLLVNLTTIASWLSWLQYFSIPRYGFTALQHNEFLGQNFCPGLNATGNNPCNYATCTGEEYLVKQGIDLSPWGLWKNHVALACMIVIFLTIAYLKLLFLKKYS

[4] = tested on: MDCKII-MDR1, MDCK-MRP2 and MDCK-BCRP cells; test: ATP activity assay in MDCK cell lines; assay type: cell-based, dog; conditions: all MDCK cell lines, 30 min treatment, 0.75, 1.25, 2.5 and 5mM
[5] = tested on: many bacterial species; conditions: cited from earlier work
[6] = tested on: P-gp; conditions: rat endothelial cell line (RBMEC); ref Li et al. 2009; cited from earlier work
[7] = biological target: T2, P-gp (human MDR1); test: [14C] erythromycin uptake in MDCKII-MDR1 cells; assay type: cell-based
[8] = biological target: T1, MRP2; test: Bidirectional [14C] erythromycin transport across MDCK-MRP2 cell monolayers; assay type: cell-based
[9] = biological target: T2, P-gp (human MDR1); test: in vitro; conditions: MDCK-MDR1, pH 7.4
[10] = tested on: MRP2; test: Bidirectional [14C] erythromycin transport across MDCK-MRP2 cell monolayers; assay type: cell-based, human; conditions: human, pH 7.4

T2 sequence (P08183 whole entry): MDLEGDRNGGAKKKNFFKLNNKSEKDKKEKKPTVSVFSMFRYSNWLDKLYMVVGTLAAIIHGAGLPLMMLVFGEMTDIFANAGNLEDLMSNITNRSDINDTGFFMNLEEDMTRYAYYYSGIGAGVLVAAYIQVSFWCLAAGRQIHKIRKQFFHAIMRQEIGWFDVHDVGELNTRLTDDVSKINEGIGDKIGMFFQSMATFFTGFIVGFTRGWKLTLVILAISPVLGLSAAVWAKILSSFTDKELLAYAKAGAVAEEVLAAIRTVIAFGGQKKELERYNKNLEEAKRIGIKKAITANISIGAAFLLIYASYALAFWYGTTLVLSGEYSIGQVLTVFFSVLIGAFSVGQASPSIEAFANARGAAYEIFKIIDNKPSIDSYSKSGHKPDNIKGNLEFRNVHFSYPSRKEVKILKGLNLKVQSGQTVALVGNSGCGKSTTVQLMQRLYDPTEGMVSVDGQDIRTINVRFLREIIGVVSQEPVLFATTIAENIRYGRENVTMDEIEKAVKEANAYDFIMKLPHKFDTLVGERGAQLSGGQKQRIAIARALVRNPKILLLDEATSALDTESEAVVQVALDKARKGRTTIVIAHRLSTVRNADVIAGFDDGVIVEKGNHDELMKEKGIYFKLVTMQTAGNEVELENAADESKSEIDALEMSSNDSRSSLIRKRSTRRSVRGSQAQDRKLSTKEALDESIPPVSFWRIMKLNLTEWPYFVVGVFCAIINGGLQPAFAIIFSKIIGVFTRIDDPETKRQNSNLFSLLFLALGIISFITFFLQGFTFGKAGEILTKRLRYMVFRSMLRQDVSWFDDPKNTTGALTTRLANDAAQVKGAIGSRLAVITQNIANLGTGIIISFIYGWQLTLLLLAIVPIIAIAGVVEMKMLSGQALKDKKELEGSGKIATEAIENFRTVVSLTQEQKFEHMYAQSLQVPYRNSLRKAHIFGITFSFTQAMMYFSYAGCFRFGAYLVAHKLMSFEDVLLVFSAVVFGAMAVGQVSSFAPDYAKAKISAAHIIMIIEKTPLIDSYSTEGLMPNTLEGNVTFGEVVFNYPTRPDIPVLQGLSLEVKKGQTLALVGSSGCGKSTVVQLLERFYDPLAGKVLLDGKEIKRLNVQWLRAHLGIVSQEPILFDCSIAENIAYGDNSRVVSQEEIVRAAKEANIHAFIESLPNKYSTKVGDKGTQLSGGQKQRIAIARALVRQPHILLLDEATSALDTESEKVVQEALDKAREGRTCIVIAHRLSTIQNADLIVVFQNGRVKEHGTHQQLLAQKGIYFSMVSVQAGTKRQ
T1 sequence (Q92887 whole entry): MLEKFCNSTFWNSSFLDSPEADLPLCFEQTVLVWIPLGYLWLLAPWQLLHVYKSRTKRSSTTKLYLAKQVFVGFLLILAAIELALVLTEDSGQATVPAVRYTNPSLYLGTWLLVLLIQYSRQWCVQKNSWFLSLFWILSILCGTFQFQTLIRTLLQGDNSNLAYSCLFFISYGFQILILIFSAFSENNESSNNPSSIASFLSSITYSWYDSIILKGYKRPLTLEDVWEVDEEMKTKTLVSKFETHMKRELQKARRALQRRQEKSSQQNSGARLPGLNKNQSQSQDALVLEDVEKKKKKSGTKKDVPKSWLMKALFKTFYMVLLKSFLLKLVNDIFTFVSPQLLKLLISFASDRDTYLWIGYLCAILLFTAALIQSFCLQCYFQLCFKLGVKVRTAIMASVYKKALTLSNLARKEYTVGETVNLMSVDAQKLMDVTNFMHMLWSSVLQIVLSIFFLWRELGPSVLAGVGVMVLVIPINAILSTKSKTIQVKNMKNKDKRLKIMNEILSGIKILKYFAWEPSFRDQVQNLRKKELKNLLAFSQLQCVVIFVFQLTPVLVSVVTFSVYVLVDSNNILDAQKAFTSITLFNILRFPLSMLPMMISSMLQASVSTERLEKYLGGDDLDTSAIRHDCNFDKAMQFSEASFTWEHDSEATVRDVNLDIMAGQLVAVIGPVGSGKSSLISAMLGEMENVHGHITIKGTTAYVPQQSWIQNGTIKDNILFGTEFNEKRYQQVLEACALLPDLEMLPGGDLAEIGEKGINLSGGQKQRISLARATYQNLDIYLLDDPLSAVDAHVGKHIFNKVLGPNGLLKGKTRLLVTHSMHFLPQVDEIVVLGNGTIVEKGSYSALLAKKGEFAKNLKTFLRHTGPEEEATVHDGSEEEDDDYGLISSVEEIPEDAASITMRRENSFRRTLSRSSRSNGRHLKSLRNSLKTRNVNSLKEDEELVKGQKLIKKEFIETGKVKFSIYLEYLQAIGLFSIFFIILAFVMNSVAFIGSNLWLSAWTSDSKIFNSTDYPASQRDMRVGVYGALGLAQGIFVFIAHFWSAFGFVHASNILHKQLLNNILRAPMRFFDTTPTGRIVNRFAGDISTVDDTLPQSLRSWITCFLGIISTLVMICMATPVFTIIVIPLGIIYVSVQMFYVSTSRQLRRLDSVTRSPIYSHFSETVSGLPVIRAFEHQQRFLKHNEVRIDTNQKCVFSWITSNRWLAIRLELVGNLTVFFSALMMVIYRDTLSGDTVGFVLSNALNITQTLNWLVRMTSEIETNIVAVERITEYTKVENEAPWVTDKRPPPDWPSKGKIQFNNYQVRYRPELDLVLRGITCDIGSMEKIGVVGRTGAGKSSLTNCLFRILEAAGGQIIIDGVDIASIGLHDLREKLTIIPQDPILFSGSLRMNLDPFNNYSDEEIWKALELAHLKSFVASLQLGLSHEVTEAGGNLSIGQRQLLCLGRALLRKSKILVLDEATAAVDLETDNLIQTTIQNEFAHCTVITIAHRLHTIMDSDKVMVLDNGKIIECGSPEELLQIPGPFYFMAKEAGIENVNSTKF

Uptake of [14C] erythromycin higher by ([1]; MDCK-MRP2 cells, 100 μM MK571, 30 min) [%]	Papp of [14C] erythromycin in B-A direction relative to AP-BL direction ([2]; erythromycin alone)	efflux ratio at 3 h [9]	efflux ratio at 3 h [10]	efflux ratio at 3 h ([8]; human, pH 7.4)	SMILES	IC50 [1] [µM]	Ki [1] [µM]	Effect on efflux ratio of [14C] erythromycin ([2]; increasing concentrations of gatifloxacin)	Effect on Hoechst 33342 uptake [3]	ATP activity of treated cells compared to vehicle control [4]	Minimum inhibitory concentration (MIC) ([5]; against many bacterial species, introduction, no reference given) [µg/mL]	Activity relative to the other quinolones ([5]; ref Ba et al. 2006)	Involvement of P-gp in the translocation of gatifloxacin [6]	IC50 [7] [µM]	Ki [7] [µM]	Effect on efflux ratio of [14C] erythromycin ([8]; MDCK-MRP2 monolayers, increasing concentrations of gatifloxacin)
177					CN(C)C(=O)CCSC(SCCC(=O)O)c1cccc(/C=C/c2ccc3ccc(Cl)cc3n2)c1 (stereo not drawn) [MK571]	188 ± 28.2	175 ± 18.2									
					COc1c(N2CCNC(C)C2)c(F)cc2c(=O)c(C(=O)O)cn(C3CC3)c12 (stereo not drawn) [gatifloxacin]	5230 ± 390	5370 ± 218	progressively decrease and approach unity	not found to be significantly different	No significant difference	0.1 (≈ 0.266 µM)	two- to fourfold more active	did not find any significant involvement	359 ± 90.1	385 ± 88.6	continuously became lower and approached unity
	more than fivefold higher	7.2	> 7	5.3	CC[C@H]1OC(=O)[C@H](C)[C@@H](O[C@H]2C[C@@](C)(OC)[C@@H](O)[C@H](C)O2)[C@H](C)[C@@H](O[C@@H]2O[C@H](C)C[C@H](N(C)C)[C@H]2O)[C@](C)(O)C[C@@H](C)C(=O)[C@H](C)[C@@H](O)[C@]1(C)O [[^14C] erythromycin, erythromycin]											
